Experiments:
Experiment in all cases: relative viability (nuclei count vs DMSO), 5 days (fraction); higher = more cells survive
SGI-1776 + Pictilisib = compound: CN1CCC(CNc2ccc3ncc(-c4cccc(OC(F)(F)F)c4)n3n2)CC1 [SGI-1776] + CS(=O)(=O)N1CCN(Cc2cc3nc(-c4cccc5[nH]ncc45)nc(N4CCOCC4)c3s2)CC1 [Pictilisib] (partner 1 µM)
How it was run: (§1)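 A single step with final 0.05% Triton X-100, 1% formaldehyde and 1 ug/ml Hoechst fixed the cells and stained nuclei 5 days after treatment. Lung cancer cell lines in 1536-well plates had been treated by pin tool the day after seeding with one drug alone or a fixed anchor-drug dose plus five library-drug doses (not always all listed) in √10 steps, and nuclei were counted on 4× images. Relative viability is the ratio of nuclei in treated wells to nuclei in vehicle wells, taken as the median of duplicate plates.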

[1] = compound: C1COCCN1C2=NC(=NC3=C2OC4=C3C=CC=N4)C5=CC(=CC=C5)NC(=O)C6=CN=C(C=C6)N + O=C(c1cc(Cc2n[nH]c(=O)c3ccccc23)ccc1F)N1CCN(C(=O)C2CC2)CC1 [Olaparib] (partner 8 µM)
How it was run: as §1

SGI-1776 + Dasatinib = compound: CN1CCC(CNc2ccc3ncc(-c4cccc(OC(F)(F)F)c4)n3n2)CC1 [SGI-1776] + Cc1nc(Nc2ncc(C(=O)Nc3c(C)cccc3Cl)s2)cc(N2CCN(CCO)CC2)n1 [Dasatinib] (partner 0.075 µM)
How it was run: as §1

SGI-1776 + AZD7762 = compound: CN1CCC(CNc2ccc3ncc(-c4cccc(OC(F)(F)F)c4)n3n2)CC1 [SGI-1776] + NC(=O)Nc1cc(-c2cccc(F)c2)sc1C(=O)N[C@H]1CCCNC1 [AZD7762] (partner 0.2 µM)
How it was run: as §1

Row | Cell Line | relative viability (SGI-1776 + Pictilisib; first compound 0.08 µM) | relative viability (SGI-1776 + Pictilisib; first compound 0.8 µM) | relative viability (SGI-1776 + Pictilisib; first compound 2.53 µM) | relative viability (SGI-1776 + Pictilisib; first compound 8 µM) | relative viability ([1]; first compound 0.02 µM) | relative viability ([1]; first compound 0.06325 µM) | relative viability ([1]; first compound 0.2 µM) | relative viability ([1]; first compound 0.6325 µM) | relative viability ([1]; first compound 2 µM) | relative viability (SGI-1776 + Dasatinib; first compound 0.08 µM) | relative viability (SGI-1776 + Dasatinib; first compound 0.8 µM) | relative viability (SGI-1776 + Dasatinib; first compound 2.53 µM) | relative viability (SGI-1776 + Dasatinib; first compound 8 µM) | relative viability (SGI-1776 + AZD7762; first compound 0.08 µM) | relative viability (SGI-1776 + AZD7762; first compound 0.8 µM) | relative viability (SGI-1776 + AZD7762; first compound 2.53 µM) | relative viability (SGI-1776 + AZD7762; first compound 8 µM)
1 | A-427 | 0.704 | 0.694 | 0.824 | 0.657 | 0.795 | 0.717 | 0.72 | 0.789 | 0.598 | 0.736 | 0.693 | 0.665 | 0.499 | 0.685 | 0.681 | 0.686 | 0.627
2 | ABC-1 | 0.675 | 0.666 | 0.745 | 0.66 | 0.767 | 0.945 | 0.726 | 1.04 | 0.685 | 0.502 | 0.613 | 0.508 | 0.465 | 0.801 | 0.648 | 0.85 | 0.83
3 | BEN | 0.736 | 0.643 | 0.504 | 0.396 | 0.935 | 1.17 | 1.23 | 1.09 | 0.819 | 0.399 | 0.313 | 0.285 | 0.302 | 0.829 | 0.735 | 0.673 | 0.524
4 | CAL-12T | 0.559 | 0.592 | 0.341 | 0.385 | 0.66 | 0.727 | 0.69 | 0.764 | 0.569 | 0.633 | 0.351 | 0.348 | 0.246 | 0.739 | 0.667 | 0.567 | 0.654
5 | ChaGo-K-1 | 0.699 | 0.844 | 0.49 | 0.415 | 0.435 | 0.402 | 0.401 | 0.409 | 0.331 | 0.652 | 0.647 | 0.561 | 0.416 | 0.892 | 0.875 | 0.912 | 0.859
6 | EKVX | 0.421 | 0.453 | 0.455 | 0.379 | 0.929 | 0.831 | 0.88 | 0.832 | 0.563 | 0.475 | 0.547 | 0.599 | 0.413 | 0.699 | 0.713 | 0.638 | 0.646
7 | EMC-BAC-2 | 0.539 | 0.555 | 0.567 | 0.485 | 0.483 | 0.484 | 0.472 | 0.476 | 0.445 | 0.361 | 0.284 | 0.314 | 0.288 | 1.12 | 1.16 | 1.09 | 0.928
8 | EPLC-272H | 0.315 | 0.318 | 0.188 | 0.259 | 0.732 | 0.807 | 0.547 | 0.721 | 0.58 | 0.381 | 0.365 | 0.264 | 0.314 | 0.188 | 0.224 | 0.364 | 0.252

Reference: the supplement of paper PMC10307832
